Results: patent US8455688B2, “HDAC inhibitors” (Lixte Biotechnology, Inc., priority 2007, dated 2013)

Test system: cell line U-87
Test: Activity against the cell line U-87
Type: cell-based, human
Details: potency on an equimolar basis

Row | Structure (SMILES) | activity against the cell line U-87
1 | O=C(CCCCCCNC(=O)c1ccccc1S)Nc1ccccc1 [Compound 212, 2-Mercapto-N-(6-phenylcarbamoyl-hexyl)benzamide] | most potent on an equimolar basis
2 | O=C(CCCCCCCNC(=O)c1ccccc1S)Nc1ccccc1 [Compound 213] | most potent on an equimolar basis
